In patent publication US20180057505A1, “BICYCLIC HETEROARYL COMPOUNDS USEFUL AS INHIBITORS OF THE PAR-2 SIGNALING PATHWAY” (VERTEX PHARMACEUTICALS INCORPORATED, priority 2015, published 2018):

Experiments:
Type in all cases: cell-based
[1] = target: T1, PAR2 (HT-29 cells) (Homo sapiens, UniProt P55085); test: Ca FLIPR TETRA assay, ANTAGONIST mode, activator 8 μM SLIGKV; settings: HT-29 cells, activator 8 μM SLIGKV; maximal antagonist concentration per Method (A: 0.1, 1 or 2 μM; B: 50 μM)
T1 construct: host or cells: HT-29
T1 sequence (P55085 26-397): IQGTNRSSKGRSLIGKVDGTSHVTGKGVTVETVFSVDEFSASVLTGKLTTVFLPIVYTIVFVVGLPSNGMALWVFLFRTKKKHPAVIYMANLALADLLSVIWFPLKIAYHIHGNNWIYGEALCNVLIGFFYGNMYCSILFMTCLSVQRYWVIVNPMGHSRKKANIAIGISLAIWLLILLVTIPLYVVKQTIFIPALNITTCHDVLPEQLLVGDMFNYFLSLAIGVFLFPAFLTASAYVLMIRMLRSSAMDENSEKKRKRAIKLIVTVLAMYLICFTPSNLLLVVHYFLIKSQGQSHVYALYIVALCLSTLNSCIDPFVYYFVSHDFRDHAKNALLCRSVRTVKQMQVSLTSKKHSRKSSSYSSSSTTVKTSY
In short: (§1)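 Compounds are added to calcium 5-loaded HT-29 cells, read once for intrinsic Ca2+ activation, then incubated 30 min at room temperature. The same wells are then stimulated with a fixed final activator level and the Ca2+ response recorded on FLIPR Tetra.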

[2] = target: T1, PAR2 (HT-29 cells); test: Ca FLIPR TETRA assay, ANTAGONIST mode, activator 3.1 U/mL trypsin; settings: HT-29 cells, activator 3.1 U/mL trypsin; maximal antagonist concentration per Method (A: 0.1, 1 or 2 μM; B: 50 μM)
In short: as §1

[3] = system: Thrombin-stimulated Ca2+ response in HT-29 cells; test: Ca FLIPR TETRA assay, ANTAGONIST mode, activator 1 U/mL Thrombin; settings: HT-29 cells, activator 1 U/mL Thrombin
In short: as §1

[4] = system: UTP-stimulated Ca2+ response in HT-29 cells; test: Ca FLIPR TETRA assay, ANTAGONIST mode, activator 0.6 μM UTP; settings: HT-29 cells, activator 0.6 μM UTP
In short: as §1

| Structure (SMILES) | IC50 [1] [nM] | IC50 [2] [nM] | IC50 ([3]; Homo sapiens) [nM] | IC50 ([4]; Homo sapiens) [nM] | IC50 [3] [nM] | IC50 [4] [nM] |
| --- | --- | --- | --- | --- | --- | --- |
| CC(C)(C)c1cc(-c2ccc(F)cc2)nc2cc(C(=O)N3CCN(C(=O)c4n[nH]c(=O)[nH]4)CC3(C)C)oc12 [Example I-187] | 10 | 20 | > 1000 | > 1000 | – | – |
| COC(=O)C1CC(C(=O)N2CCN(C(=O)c3cc4nc(-c5ccc(F)cc5)cc(C(C)(C)C)c4o3)C(C)(C)C2)C1 (stereo not drawn) [Example I-188] | 3 | 6 | > 1000 | > 1000 | – | – |
| CC(C)(C)c1cc(-c2ccc(F)cc2)nc2cc(C(=O)N3CCN(C(=O)C4CC(C(=O)O)C4)CC3(C)C)oc12 (stereo not drawn) [Example I-189] | 17 | 28 | > 1000 | > 1000 | – | – |
| COC(=O)C12CC(C(=O)N3CCN(C(=O)c4cc5nc(-c6ccc(F)cc6)cc(C(C)(C)C)c5o4)C(C)(C)C3)(C1)C2 [Example I-190] | 11 | 13 | 520 | 760 | – | – |
| CC(C)(C)c1cc(-c2ccc(F)cc2)nc2cc(C(=O)N3CCN(C(=O)C45CC(C(=O)O)(C4)C5)CC3(C)C)oc12 [Example I-191] | 403 | 713 | > 1000 | > 1000 | – | – |
| CC(C)(C)c1cc(-c2ccc(F)cc2)nc2cc(C(=O)N3CCN(C(=O)c4ccc(C(=O)O)cc4)CC3(C)C)oc12 [Example I-192] | 14 | 13 | > 1000 | > 1000 | – | – |
| CC(C)(C)c1cc(-c2ccc(F)cc2)nc2cc(C(=O)N3CCN(C(=O)C4(C(=O)O)CC4)CC3(C)C)oc12 [Example I-193] | 260 | 190 | > 1000 | > 1000 | – | – |
| CC(C)(C)c1cc(-c2ccc(F)cc2)nc2cc(C(=O)N3CCN(C(=O)CCC(=O)O)CC3(C)C)oc12 [Example I-194] | 9 | 22 | > 1000 | > 1000 | – | – |
| CC(C)(C(=O)O)C(=O)N1CCN(C(=O)c2cc3nc(-c4ccc(F)cc4)cc(C(C)(C)C)c3o2)C(C)(C)C1 [Example I-195] | 96 | 233 | > 1000 | > 1000 | – | – |
| CC(C)(CC(=O)N1CCN(C(=O)c2cc3nc(-c4ccc(F)cc4)cc(C(C)(C)C)c3o2)C(C)(C)C1)C(=O)O [Example I-196] | 0.7 | 1 | > 1000 | > 1000 | – | – |
| CC(C)(C)c1cc(-c2ccc(F)cc2)nc2cc(C(=O)N3CCN(C(=O)[C@H]4C[C@@H]4C(=O)O)CC3(C)C)oc12 [Example I-197] | 48 | 76 | > 1000 | > 1000 | – | – |
| CC1(C(=O)O)CCC(C(=O)N2CCN(C(=O)c3cc4nc(-c5ccc(F)cc5)cc(C(C)(C)C)c4o3)C(C)(C)C2)CC1 (stereo not drawn) [Example I-198] | 0.1 | 0.8 | > 1000 | > 1000 | – | – |
| CC(C)(C)c1cc(-c2ccc(F)cc2)nc2cc(C(=O)N3CCN(C(=O)C4(C(N)=O)CC4)CC3(C)C)oc12 [Example I-199] | 17 | 27 | > 1000 | > 1000 | – | – |
| CC(C)(C)c1cc(-c2ccc(F)cc2)nc2cc(C(=O)N3CCN(S(=O)(=O)C4CC4)CC3(C)C)oc12 [Example I-200] | 3 | 6 | > 1000 | > 1000 | – | – |
| CC(C)(C)c1cc(-c2ccc(F)cc2)nc2cc(C(=O)N3CCN(S(=O)(=O)c4c[nH]cn4)CC3(C)C)oc12 [Example I-201] | 4 | 7 | > 1000 | > 1000 | – | – |
| CCC(C)c1cc(-c2ccc(F)cc2)nc2cc(C(=O)N3CCNC(=O)C3(C)C)oc12 (stereo not drawn) [Example I-202] | 5 | 5 | > 1000 | > 1000 | – | – |
| CC1(C)C(=O)NCCN1C(=O)c1cc2nc(-c3ccc(F)cc3)cc(C3CCCC3)c2o1 [Example I-203] | 5 | 10 | > 1000 | > 1000 | – | – |
| CC1(O)CC(C(=O)C2CCN(C(=O)c3cc4nc(-c5ccc(F)cc5)cc(C5(C#N)CC(F)(F)C5)c4o3)C(C)(C)C2)C1 (stereo not drawn) [Example I-204] | 6 | 4 | – | – | > 1000 | > 1000 |
